Here are results for 3 compounds from patent publication US12320799B2, “Methods of measuring signaling pathway activity for selection of therapeutic agents” (Celcuity Inc., priority 2017, dated 2025).

What all share (assay type): cell-based, human
In one test the test system is ALK signaling pathway. Briefly: CELx multiple pathway test, impedance biosensor cell adhesion, FAM150A/Ceritinib pair. The note with it: activator FAM150A. From the text:
(§1) Biosensor and transducer: A 96-well impendence E-Plate (ACEA, San Diego, CA) was placed onto an xCELLigence RTCA MP Station impendence biosensor (ACEA, San Diego, CA). The biosensor measured simultaneously the impedance of every well. The change in impedance for a particular well is proportional to the number of cells and type of attachment the cells have with the impedance microplate. Changes in impedance indicate a response to perturbation of these small cell populations. Coatings: The 96-E-Plate were wells were coated with fibronectin and or collagen. Collagen is purchased from Advanced BioMatrix (Carlsbad, CA) and fibronectin from Sigma-Aldrich (St. Louis, MO). Tissue and cell samples: A total of 18 samples of human tumor cells from breast, lung, colon, ovarian, kidney, bladder cancer were studied. For each of these six different cancer types, tumor cell samples from three different patients were tested. Any biomarkers that are used to guide selection of targeted therapy are listed in Table 18 for each patient if they were present. Signaling Pathways activator agent and targeted therapeutic pairs: Eleven different signaling pathways were studied in each human tumor cell sample using […] signaling pathway activator agent and targeted therapeutic pairs. Each of the signaling pathway activator agent and targeted therapeutic pairs affect the same signaling pathway. Each of the signaling pathway activator agents is a well-characterized and specific agonist of its associated signaling pathway and each of the targeted therapeutic agents is a well-characterized and specific antagonist of the same associated signaling pathway. The signaling pathway activator agents and targeted therapeutics used to characterize the activity level of the associated signaling pathway are summarized in Table 16 below:
(§2) Other Reagents: Standard media antibiotics (e.g. penicillin, streptomycin) and other buffers were purchased and used as delivered from ATCC (Manassas, VA, USA) or Life Technologies (Grand Island, NY). Procedure: For each test of a patient cell sample with a pair of signaling pathway activator and targeted therapeutic agents, six wells were seeded with approximately 15,000 cells in 120 uL culture media. Twenty microliters of the targeted therapeutic agent were added to two wells of each patient's cells and 20 microliters of standard media were added to the other four wells for each patient 18 hours in advance of addition of the signaling pathway activator agent. Signaling pathway stimulation was initiated with the addition of 20 ul of the signaling pathway activator agent in the two wells that received a targeted therapeutic agent and in two additional wells for each patient's set of cells without the targeted therapeutic. The impedance recording of attachment and adhesion change was performed at 37° C., 5% C02. Data was recorded on a continuous basis throughout the test, where the data presented is from the initial baseline level of cell attachment compared to the subsequent effects following the targeted therapeutic agent and the signaling pathway activator agent additions on the 18 different patient samples.
(§3) For each of the 18 patient samples, up to 11 different signaling pathways were tested. The output value represents the difference between the amount of cell adhesion change resulting from addition of the signaling pathway activator agent and the amount of cell adhesion change resulting from addition of the targeted therapeutic agent.

Another test has as its system Axl signaling pathway. Briefly: CELx multiple pathway test, impedance biosensor cell adhesion, Gas6/R428 (BGB324) pair. The note with it: activator Gas6.
Description: as §1, §2, §3

The test system of the next test is HER2 signaling pathway. Description: CELx multiple pathway test, impedance biosensor cell adhesion, Pertuzumab. The note with it: no activator listed.
Description: as §1
as §2, with “samples. Results:” for “samples.”
(§4) Table 17 presents the results, expressed as an output value, for each of the 167 tests performed using the methods described above. For each of the 18 patient samples, up to 11 different signaling pathways were tested. The output value represents the difference between the amount of cell adhesion change resulting from addition of the signaling pathway activator agent and the amount of cell adhesion change resulting from addition of the targeted therapeutic agent.

For test [1], the system named is HER2/HER3 signaling pathway. Briefly: CELx multiple pathway test, impedance biosensor cell adhesion, NRG1/Pertuzumab pair. To be noted: activator NRG1.
Description: as §1, §2, §3

The test system of test [2] is HER2/HER1 signaling pathway. Description: CELx multiple pathway test, impedance biosensor cell adhesion, EGF/Pertuzumab pair. The note with it: activator EGF.
Description: as §1
as §2, with “samples. Results:” for “samples.”
as §4

`Cc1cc(Nc2ncc(Cl)c(Nc3ccccc3S(=O)(=O)C(C)C)n2)c(OC(C)C)cc1C1CCNCC1` [Ceritinib]: the output value with ALK signaling pathway (C2 breast tumor cells) is given as 5; with ALK signaling pathway (C21 breast tumor cells), 10; in the test with ALK signaling pathway (C23 lung tumor cells), 16; in the test on ALK signaling pathway (C24 lung tumor cells), 2; in the test with ALK signaling pathway (C25 lung tumor cells) it was 8; with ALK signaling pathway (C34 breast tumor cells) it was 15. The values for the output value with ALK signaling pathway (C54 ovarian tumor cells), with ALK signaling pathway (C69 ovarian tumor cells) and in the test on ALK signaling pathway (C77 ovarian tumor cells) were 14, 16 and 37, respectively.

In the case of `Nc1nc(Nc2ccc3c(c2)CC[C@@H](N2CCCC2)CC3)nn1-c1cc2c(nn1)-c1ccccc1CCC2` [R428 (BGB324)], the output value in the test on Axl signaling pathway (C2 breast tumor cells) was 5; in the test with Axl signaling pathway (C21 breast tumor cells), 6; with Axl signaling pathway (C23 lung tumor cells) it was 24; in the test with Axl signaling pathway (C24 lung tumor cells) it was 7; in the test with Axl signaling pathway (C25 lung tumor cells), 30; in the test on Axl signaling pathway (C34 breast tumor cells), 44. In addition, the values for the output value in the test on Axl signaling pathway (C54 ovarian tumor cells), in the test on Axl signaling pathway (C69 ovarian tumor cells) and in the test on Axl signaling pathway (C77 ovarian tumor cells) were 12, 10 and 5, respectively.

As for Pertuzumab, the output value with HER2 signaling pathway (C2 breast tumor cells) is recorded as 454; in the test with HER2 signaling pathway (C21 breast tumor cells), −9; in the test on HER2 signaling pathway (C23 lung tumor cells), −55; in the test on HER2 signaling pathway (C24 lung tumor cells), 66; in the test with HER2 signaling pathway (C25 lung tumor cells), 47; with HER2 signaling pathway (C34 breast tumor cells) it was −90. The output value in the test on HER2 signaling pathway (C54 ovarian tumor cells) is reported as 537; in the test on HER2 signaling pathway (C62 colorectal tumor cells) it was 24; in the test with HER2 signaling pathway (C69 ovarian tumor cells), −20; in the test with HER2 signaling pathway (C71 colorectal tumor cells), 165; in the test with HER2 signaling pathway (C72 colorectal tumor cells), 21; with HER2 signaling pathway (C77 ovarian tumor cells), 361. Further, the output value in the test on HER2 signaling pathway (C81 bladder tumor cells) stood at 5; with HER2 signaling pathway (C82 bladder tumor cells), 6; in the test with HER2 signaling pathway (C87 bladder tumor cells) it was 523; with HER2 signaling pathway (C88 kidney tumor cells), 16; in the test with HER2 signaling pathway (C90 kidney tumor cells), 32; with HER2 signaling pathway (C92 kidney tumor cells), 23. The output value is listed as 426 in test [1] (C2 breast tumor cells); −48 in test [1] (C21 breast tumor cells); 61 in test [1] (C23 lung tumor cells); 13 in test [1] (C24 lung tumor cells); 9 in test [1] (C25 lung tumor cells); 356 in test [1] (C54 ovarian tumor cells). In addition, the output value in test [1] (C62 colorectal tumor cells) was 24; in test [1] (C71 colorectal tumor cells), 175; in test [1] (C72 colorectal tumor cells) it was 21; in test [1] (C77 ovarian tumor cells), 294; in test [1] (C81 bladder tumor cells), 4; in test [1] (C82 bladder tumor cells) it was 5. The output value in test [1] (C87 bladder tumor cells) is on record as 477; in test [1] (C88 kidney tumor cells), 46; in test [1] (C90 kidney tumor cells) it was −3; in test [1] (C92 kidney tumor cells), −20; in test [2] (C2 breast tumor cells) it was 28; in test [2] (C21 breast tumor cells), 40. Moreover, the output value in test [2] (C23 lung tumor cells) was −6; in test [2] (C24 lung tumor cells), 54; in test [2] (C25 lung tumor cells), 38; in test [2] (C34 breast tumor cells), −176; in test [2] (C54 ovarian tumor cells), 180; in test [2] (C62 colorectal tumor cells), 0. Besides, the output value is reported as −115 in test [2] (C69 ovarian tumor cells); −10 in test [2] (C71 colorectal tumor cells); 0 in test [2] (C72 colorectal tumor cells); 67 in test [2] (C77 ovarian tumor cells); 1 in test [2] (C81 bladder tumor cells); 1 in test [2] (C82 bladder tumor cells). Also, the output value is on record as 46 in test [2] (C87 bladder tumor cells), −24 in test [2] (C88 kidney tumor cells), 35 in test [2] (C90 kidney tumor cells) and 3 in test [2] (C92 kidney tumor cells).
